In patent US8865622B2, “Use of active ingredients for controlling nematodes in nematode-resistant crops” (priority 2010, dated 2014):

Columns and labels:
[1] = tested on: Jack soybean plants (nontransgenic, AXN2, AXMI031); test: Plant height of soybean plants in the SCN pot test; format: in vivo
Protocol: (§1) Two tests were planted with Jack (an SCN resistant soybean variety with PI 88788 resistance) and two genetically modified Jack varieties (AXN2 and AXMI031) known to produce a nematicidal protein. The seed were treated with a color/coating base or the same base plus one of two different rates of fluopyram (experiment 1 used 0.075 mg fluopyram/seed and experiment 2 used 0.15 mg fluopyram/seed). The SCN used to inoculate both tests were collected from an inbred colony (OP50) with the ability to overcome PI 88788 resistance.
(§2) Tests were conducted as non-randomized blocks with a minimum of 10 replicates. Seed were planted in individual 4″ clay pots with coarse sand and inoculated with approximately 20,000 OP50 juveniles in ten equal inoculations beginning at planting and again approximately every third day. Plants were maintained in a germination chamber. Blocks were rotated approximately every third day to minimize potential influence of environmental variance. Two months after planting, plants were harvested and cysts were collected and counted to evaluate the efficacy of the nematicide and traits, both individually and in combination with each other.

[2] = tested on: SCN (inbred colony OP50, able to overcome PI 88788 resistance); test: SCN cyst count on soybean plants grown from treated seed, pot test in germination chamber; format: in vivo; details: for reduction of SCN populations: nontransgenic Jack plants, cysts counted two months after planting; for percent reduction of average number of cysts compared to Jack: base (color/coating) treatment only, trait effect
Protocol: as §1, §2

Row | Molecule | effect on average plant height ([1]; both genetically modified varieties (Axn2, Axmi031), both experiments (0.075 and 0.15 mg/seed)) | effect on average plant height ([1]; nontransgenic control Jack plants, both experiments) | reduction of SCN populations ([2]; first experiment, 0.075 mg fluopyram/seed) [%] | approximate reduction (SCN) provided by fluopyram ([2]; high rate (0.15 mg/seed), transgenic Axmi031 plants) [%] | approximate reduction (SCN) provided by fluopyram ([2]; high rate (0.15 mg/seed), transgenic Axn2 plants) [%] | approximate reduction (SCN) provided by fluopyram ([2]; low rate (0.075 mg/seed), transgenic Axmi031 plants) [%] | approximate reduction (SCN) provided by fluopyram ([2]; low rate (0.075 mg/seed), transgenic Axn2 plants) [%] | reduction of SCN populations ([2]; second experiment, 0.15 mg fluopyram/seed) [%] | percent reduction of average number of cysts compared to Jack ([2]; first experiment) [%] | percent reduction of average number of cysts compared to Jack ([2]; second experiment) [%]
1 | O=C(NCCc1ncc(C(F)(F)F)cc1Cl)c1ccccc1C(F)(F)F [fluopyram, N-{2-[3-chloro-5-(trifluoromethyl)-2-pridinyl]ethyl}-2-(trifluoromethyl)benzamide] | increased average plant height | not having an effect | 26 | ~40 | ~40 | ~20 | ~20 | 43 |  | 
2 | AXN2: genetically modified Jack soybean variety known to produce a nematicidal protein (gene axn2, Table 1) (protein, AXMI-205(trun20)) MASAANAGQLGNLPGVTSMGMGYDVNGLYASPESLLGQPLFDFGGELDSIEIEGRSYTFPRSMHVHTYFHSDFKQDVSKEIEEYREKMSQHVGVSGRYKLFSASLSVDFTTTDQQLTEITYSSTREAHVLWYISLPGAATLRSMLRRDFRDDLNNPNMPAMELFKRYGPYYISEAAVGGRLDYSAASKTLKMDSSQSLSTTAEMSYKALVGEIKIEHGSEMEKQVNSFRSNSTIRLTATGGKPGMTDRILHGPDSQQAFSQWAESLLDYATLMDFSTESLQPIWALADKPERRVELEDAFPEFMKQSQQSIPKVDKVLLMDARPPMVKAGEDSGSGASEDLAVFNPSTSNGYKMVGQFGQRNHASVADGHAPIFKDLFDLGVLKAPVGWQRVWDDAGSGKSKDYACWRAIPPQGYRALGDVMMLATSGYNPPNLPDYVCVHQSLCADVQTLQNRVWWDKGTGARKDVSLWQPGAAGAVASSCFAGVPNYNNPPNSGDIERLRGSIACVKTSAIASM |  |  |  |  |  |  |  |  | 20 | 43
3 | AXMI031: genetically modified Jack soybean variety known to produce a nematicidal protein (gene axmi031, Table 1) (protein, listed as Bacillus thuringiensis) MNMNNTKLNARALPSFIDYFNGIYGFATGIKDIMNMIFKTDTGGDLTLDEILKNQQLLNEISGKLDGVNGSLNDLIAQGNLNTELSKEILKIANEQNQVLNDVNNKLDAINTMLNIYLPKITSMLSDVMKQNYALSLQIEYLSRQLQEISDKLDVINLNVLINSTLTEITPSYQRIKYVNEKFDKLTFATESTLRAKQGIFNEDSFDNNTLENLTDLAELAKSITKNDVDSFEFYLHTFHDVLIGNNLFGRSALKTASELITKDEIKTSGSEIGKVYSFLIVLTSLQAKAFLTLTTCRKLLGLSDIDYTSIMNEHLNNEKNEFRDNILPALSNKFSNPSYAKTIGSDNYAKVILESEPGYALVGFEIINDPIPVLKAYKAKLKQNYQVDNQSLSEIVYLDIDKLFCPENSEQKYYTKNLTFPDGYVITKITFEKKLNNLIYEATANFYDPSTGDIDLNKKQVESTFPQTDYITMDIGDDDGIYMPLGVISETFLTPINSFGLEVDAKSKTLTLKCKSYLREYLLESDLKNKETGLIAPPNVFISNVVKNWDIEEDSLEPWVANNKNAYVDNTGGIERSKALFTQGDGEFSQFIGDKLKPNTDYIIQYTVKGKPAIYLKNKSTGYITYEDTNGNSEEFQTIAVKFTSETDLSQTHLVFKSQNGYEAWGDNFIILEAKLFETPESPELIKFNDWERFGTTYITGNELRIDHSRGGYFRQSLNIDSYSTYDLSFSFSGLWAKVIVKNSRGVVLFEKVKNNGSSYEDISESFTTASNKDGFFIELTAERTSSTFHSFRDISIKEKIE |  |  |  |  |  |  |  |  | 92 | 88
